Source: US20240285670A1, “THERAPEUTIC TREATMENT OF TUMORS BY BLOCKING THE HEME SYNTHESIS-EXPORT AXIS” (Università degli Studi di Torino, priority 2021, published 2024)

Legend:
[1] = tested on: ALAS1; test: qRT-PCR analysis of ALAS1 expression in SKCO1 cells; format: cell-based, human
[2] = tested on: SH-SY5Y cells; test: Heme content in SHSY-5Y cells; format: cell-based, human
Source text: (A) Frequency (%) of patient tumors with overexpression of FLVCR1 compared to their matched normal tissues across multiple cancer types. The number of patients showing tumor FLVCR1 overexpression relative to the total number of patients examined are indicated in the plot. Data derive from the BioXpress (Wan et al., 2015). […] Transcript abundance, normalized to beta-actin mRNA expression (for SHSY-5Y cells) or to 18s mRNA (for BTECs), is expressed as a fold increase over a calibrator sample. Data represent mean±SEM, n=4. For statistical analyses, an unpaired Student's t-test was used; ***p<0.001. (C, E) Western blot analysis of FLVCR1a expression in SHSY-5Y cells (C) and BTECs (E). Vinculin expression is shown as a loading control. Band intensities were measured by densitometry and normalized to vinculin expression. […] Values are expressed as pmol heme/mg protein. […] Values are expressed as pmol heme/mg protein. […]
(A) Heme content in SHSY5Y cells non-treated (NT) or treated with 5 mM ALA for 15 hours. Values are expressed as pmol heme/mg protein. […] Transcript abundance, normalized to beta-actin mRNA expression, is expressed as a fold increase over a calibrator sample. […] Transcript abundance, normalized to beta-actin mRNA expression, is expressed as a fold increase over a calibrator sample. […] Band intensities were measured by densitometry and normalized to beta-actin expression. […]

Compound	ALAS1 mRNA levels ([1]; SKCO1 cells, 5 mM ALA for 24 hours vs untreated)	heme content inside the cells ([2]; 5 mM ALA for 15 hours vs non-treated)	ALAS1 expression (qRT-PCR) ([1]; FLVCR1a-silenced vs scramble shRNA SKCO1 cells)	heme accumulation upon stimulation of de-novo heme biosynthesis ([2]; FLVCR1a-silenced vs scramble shRNA, 5 mM 5-ALA for 15 hours)
Cl.NCC(=O)CCC(=O)O [5-ALA, 5-Aminolevulinic acid hydrochloride]	decreased	promoted heme accumulation inside the cells		
FLVCR1a shRNA: shRNA specifically down-regulating FLVCR1a without targeting FLVCR1b; pLKO.1 lentiviral clone TRCN0000059599, antisense SEQ ID No.: 2 (antisense TTGCTAATGATGCTGTACTGG; sense CCAGTACAGCATCATTAGCAA)			reduced ALAS1 expression	higher heme accumulation than controls
